Results on 10 molecules are retold here after patent US4214095A, “Chlorobenzyl phenoxy alkoxylates” (Siegfried Aktiengesellschaft, priority 1979, dated 1980).

For series [1], the system named is cholesterol level in the blood serum. As to the kind of experiment: Cholesterol-lowering effectiveness (E1 D25) in rats. It is filed as in vivo, male Whistar rats. As to conditions: for ED25: Rattus norvegicus, male Whistar rats, oral, daily, two weeks (5 + 5 days), vs control, read-out: E1 D25 (dose causing 25% reduction of average serum cholesterol level); for cholesterol lowering effectiveness (in words): conclusion from Table I. As for the experimental part:
(§1) The compounds of Examples I to VIII were tested to evaluate their pharmacological effectiveness. Specifically, their toxicity (LD50), cholesterol-lowering effectiveness (E1 D25) and their liver weight increasing activity (E2 D25) were tested on animals according to standard methods.
(B) The effective dose E1 D25 is the amount of test substance in milligram per kilogram body weight of the test animals (male Whistar rats, 100-200 g body weight, eight to ten animals per dosis) that causes a 25% by weight reduction of the average cholesterol level in the blood serum of test animals that had received the test substance, compared with the cholesterol level in the blood serum of the control group. The test substances were administered orally via a probe in the manner set forth above for the LD50 toxicity, i.e. as suspension in aqueous Gum Arabic. Each test animal was administered daily with 10 ml of the suspension per kilogram body weight. The animals of the control group were administered daily with each 10 ml of the aqueous Gum Arabic per kilogram of body weight without the test substance. The daily dose was administered for 5 subsequent days, resumed after a two-day week-end interval and continued for 5 additional days. After a total test period of two weeks, both the test and the control animals were sacrificed and the blood serum was recovered from the bodies for analysis.
Cholesterol analysis of the serum recovered was carried out according to the standard method of M. Richterich (cf. Monography by M. Richterich, "Klinische Chemie," Verlag Karger, Basel/New York, 1965, p. 232) and the results were evaluated by means of a cholesterol level/dose diagram. The E1 D25 values were taken from the diagram thus obtained. Lower E1 D25 values indicate higher activity, and vice versa.

Series [2] in a line: Acute oral toxicity (LD50) in mice. Conditions: mouse, in vivo. It is filed as in vivo. As for the experimental part:
as §1
(§2) At least three different doses were tested for each LD50 value given and 10 animals were used for testing of each dose; five test animals were kept in one standard "Macrolon" cage. The test substance was administered as a suspension in aqueous (3-5% by weight) Gum Arabic via a probe into the stomach in quantities of 10 ml of the suspension per kilogram body weight. As is conventional, LD50 is that dose of the test substance in mg/kg body weight which causes death of 50% of the test animals within the observation period. Higher LD50 values indicate lower toxicity and vice versa.

Series [3] concerns liver weight/body weight ratio (relative liver weight). Also on record: species or system male Whistar rats. As to conditions: rat, in vivo. On the procedure: as §1
(C) The effective dose E2 D25 is the amount of test substance in milligram per kilogram body weight of the test animals (male Whistar rats, 100-200 g body weight, eight to ten animals per dose) that causes a 25% increase of the liver weight/body weight ratio (relative liver weight) of test animals that had received that test substance, compared with the liver weight/body weight ratio of the control group. Administration was effected substantially in the manner described above for E1 D25. The relative liver weight was determined from the bodies of the sacrificed animals and the control animals. The actual increase of the relative liver weight was evaluated graphically and the E2 D25 was obtained by interpolation from the graph.

Series [4] relates to mice. Nature of the series: Acute oral toxicity (LD50) in mice. It is filed as in vivo. As to conditions: conclusion from Table I. On the procedure: as §1, §2
Series [5] has as its system mice. Conditions: background section; cited from earlier work.
[6] abbreviates: mice, single oral dose, 7 days observation or longer, read-out: LD50.

SMILES strings stand for the structures. Structures can show the parent of a compound that is named as a salt. Where two headings read alike, the source gives them in different places. Some results are limits rather than exact numbers.

One may read the LD50 as the dose expected to kill half of the subjects tested.

Take `CCCC(C)(Oc1ccccc1Cc1ccc(Cl)cc1)C(=O)OCC` (racemic) [Example II, ethyl D,L-2-methyl-2-[o-(p'-chlorobenzyl)-phenoxy]-valerate]: the ED25 in series [1] is approximately 40 mg/kg. Besides, the LD50 at 168 h in series [2] (po, read-out: LD50) was more than 10000 mg/kg.
`CCOC(=O)C(C)(CC)Oc1ccccc1Cc1ccc(Cl)cc1` (racemic) [Example I, ethyl D,L-2-methyl-2-[o-(p'-chlorobenzyl)-phenoxy]butyrate]: the “liver enlargement activities (in words)” value in series [3] was “low or very low liver enlargement activities”. For the same molecule, in series [1], the ED25 was approximately 10 mg/kg and the “cholesterol lowering effectiveness (in words)” value is given as “high cholesterol lowering effectiveness”. In addition, the “toxicity (in words)” value in the series on mice [4] is on record as “low toxicity”. In series [2] (po, read-out: LD50), the median lethal dose (LD50) at 168 h is more than 10000 mg/kg.
Regarding `CCC(C)(Oc1ccccc1Cc1ccc(Cl)cc1)C(=O)OCc1cccnc1` (racemic) [Example III, D,L-2-methyl-2-[o-(p'-chlorobenzyl)-phenoxy]-butyric acid-(3-oxymethyl-pyridine)-ester hydrochloride], in series [1], the ED25 is approximately 10 mg/kg. In addition, the LD50 at 168 h in series [2] (po, read-out: LD50) is more than 3000 mg/kg.
`CCOC(=O)C(C)(CC)Oc1cccc(Cc2ccc(Cl)cc2)c1` (stereo not drawn) [Example VIII]: the ED25 in series [1] is 40 mg/kg.
Consider `CCOC(=O)COc1ccccc1Cc1ccc(Cl)cc1` [Example VI], for which, in series [1], the ED25 amounted to 300 mg/kg and the “cholesterol lowering effectiveness (in words)” value is reported as “reduced cholesterol lowering effect”. Further, the LD50 at 168 h in series [2] (po, read-out: LD50) is 3000 mg/kg.
Take `CCOC(=O)C(C)(CC)Oc1ccc(Cc2ccc(Cl)cc2)cc1` (stereo not drawn) [Substance A, ethyl ester of 2methyl-2-4(4chlorobenzyl)-phenoxy-butyric acid, reference compound]: the ED25 in series [1] turned out to be 12.1 mg/kg. Moreover, the LD50 at 168 h in series [2] (po) stood at 8000 mg/kg.
On to `CCOC(=O)C(C)(C)Oc1ccccc1Cc1ccc(Cl)cc1` [Example IV, ethyl 2-methyl-2-[o-(p'-chlorobenzyl)-phenoxy]propionate], for which the ED25 in series [1] is approximately 90 mg/kg. In addition, the LD50 at 168 h in series [2] (po, read-out: LD50) was more than 10000 mg/kg.
Take `CCOC(=O)C(C)(C)Oc1ccc(Cl)cc1` [Substance B, Ethyl p-chlorophenoxyisobutyrate, reference compound]: the ED25 in series [1] was determined as 151 mg/kg. The LD50 at 168 h in series [2] (setting [6]) came to 2350 mg/kg. In the series with mice [5], the “toxicity (in words)” value is on record as “relatively high toxicity”.
`CCOC(=O)C(C)Oc1ccccc1Cc1ccc(Cl)cc1` (stereo not drawn) [Example VII]: in series [1], the ED25 came to 100 mg/kg and the “cholesterol lowering effectiveness (in words)” value is “reduced cholesterol lowering effect”. Moreover, in series [2] (po, read-out: LD50), the median lethal dose (LD50) at 168 h is more than 3000 mg/kg.
As to `CC(C)(Oc1ccccc1Cc1ccc(Cl)cc1)C(=O)OCc1cccnc1` [Example V, 2-methyl-2-[o-(p'-chlorobenzyl)-phenoxy]-propionic acid-(3-oxymethyl-pyridine)-ester hydrochloride], in series [2] (setting [6]), the median lethal dose (LD50) at 168 h is more than 3000 mg/kg.
